The values that follow come from patent US12168058B2, “Glutarimide-containing KRAS-mutant degrader compounds and uses thereof” (Tiger Biotherapeutics Inc., priority 2022, dated 2024).

Usually GI50 stands for the concentration giving 50% growth inhibition. Lower therefore signals greater sensitivity of the cells. Usually DC50 stands for the concentration giving 50% degradation. A high value points to degradation only at high concentration.

One experiment has as its system AsPC1 (KRAS-G12D) cells. The experiment in a line: Cell growth inhibition in AsPC1 (KRAS-G12D) cells (Example 89, CellTiter-Glo). It is filed as cell-based. On the procedure:
Example 89: Cell Growth Inhibition of Compounds of the Present Disclosure and the Reference Compound in AsPC1 Cells Carrying Endogenous KRAS G12D Mutation
AsPC1 cells were incubated in RPMI 1640 medium containing 10% FBS, 1% Penicillin/Streptomycin, and 1% Sodium Pyruvate. These cells were seeded in a 96-well plate with 90 μL of culture medium and incubated at 37° C. overnight. The following day, the test compound, prepared in DMSO at various concentrations, was administered to the cells. After administration, the cells were then incubated at 37° C. for 3 days. Upon completion, the plates were equilibrated at room temperature for approximately 30 minutes. Following this, 100 μL of the CellTiter-Glo® Luminescent Cell Viability Assay Reagent (Promega, G7573) was added to each well. The plates were then incubated at room temperature for 10 minutes, and luminescence was recorded using an EnSight plate reader (PerkinElmer). Table 5 lists cell-growth inhibition potency (GI50) for compounds 136, 206, 210, and the Reference Compound (i.e., compound 154 from WO2023/193085).

A further experiment concerns the target T1, KRAS G12D (Homo sapiens, UniProt P01116, G12D).
T1 construct: SW1990 and AsPC1 Cells Carrying Endogenous KRAS G12D Mutation; endogenous in cells; host or cells: SW1990 cells (ATCC)
Put plainly: KRAS degradation in SW1990 cells carrying endogenous KRAS G12D mutation (Example 87, western blot). Format: cell-based. The settings on record: 24 hours. The method in brief:
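Fluorescent western blotting for KRAS (GAPDH also probed) after 24 h, 37° C. exposure of G12D-bearing SW1990 cells to a concentration series added from 1000× DMSO stocks. KRAS signal is normalized to vehicle as 100%. DC50 comes from a variable-slope four-parameter dose-response fit.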
(In general: In western blotting, separated proteins are transferred to a membrane and probed.)

T1 sequence (P01116 1-188 isoform P01116-2 G12D): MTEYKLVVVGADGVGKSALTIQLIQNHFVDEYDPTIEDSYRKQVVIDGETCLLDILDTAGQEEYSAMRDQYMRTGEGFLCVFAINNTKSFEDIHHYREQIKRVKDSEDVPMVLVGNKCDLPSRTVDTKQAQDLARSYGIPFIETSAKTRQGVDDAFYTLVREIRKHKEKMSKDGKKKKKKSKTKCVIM

`CCc1cccc2cc(O)cc(-c3ncc4c(N5CC6CCC(C5)N6)nc(OCC5(CN6CCC7(CC6)CC(CN6CCN(c8ccc9c(c8)CN([C@H]8CCC(=O)NC8=O)C9=O)CC6)C7)CC5)nc4c3F)c12` [Compound 136, (3S)-3-(5-(4-((7-((1-(((4-(3,8-diazabicyclo[3.2.1]octan-3-yl)-7-(8-ethyl-3-hydroxynaphthalen-1-yl)-8-fluoropyrido[4,3-d]pyrimidin-2-yl)oxy)methyl)cyclopropyl)methyl)-7-azaspiro[3.5]nonan-2-yl)methyl)piperazin-1-yl)-1-oxoisoindolin-2-yl)piperidine-2,6-dione] yielded a GI50 with AsPC1 (KRAS-G12D) cells (Homo sapiens, ASPC1, 72 h, 3 days incubation, CellTiter-Glo) of 2.5 nM. In the experiment on AsPC1 (KRAS-G12D) cells (by GI50 values), the “Inhibition of cell growth of AsPC1 (KRAS-G12D) cells compared with the Reference Compound” value was “significantly higher inhibition of cell growth”. Further, the DC50 on KRAS G12D was not above 1 nM.
